Reference: patent US12448375B2, “Kinase inhibitors for the treatment of neurodegenerative diseases” (Ohio State Innovation Foundation, priority 2019, dated 2025)

Key:
Assay type in all cases: biochemical
Conditions in all cases: HotSpot radiometric assay, 33P-ATP
p38a = biological target: T1, p38a (Homo sapiens, UniProt Q16539); experiment: HotSpot Kinase Assay, P38a
T1 construct: purchased Reaction Biology Corp
Procedure: (§1) The anti-JNK3 activity of compounds prepared as in the previous examples was evaluated using a Reaction Biology Corp. HotSpot Kinase Assay. Base reaction buffer was 20 mM HEPES (4-(2-hydroxyethyl)-1-piperazineethanesulfonic acid) at pH 7.5 with 10 mM MgCl2, 1 mM EGTA (ethylene glycol-bis(β-aminoethyl ether)-N,N,N′,N′-tetracetic acid), 0.02% Brij™ 35, 0.02 mg/mL BSA (bovine serum albumin), 0.1 mM Na3VO4, 2 mM DTT (dithiothreitol), and 1% DMSO. Required cofactors were added individually to each kinase reaction.
(§2) Activity against related enzymes JNK1 and P38a was further assessed using the same assay.

JNK1 = biological target: T2, JNK1 (Homo sapiens, UniProt P45983); experiment: HotSpot Kinase Assay, JNK1
T2 construct: purchased Reaction Biology Corp
Procedure: as §1, §2

JNK3 = biological target: T3, JNK3 (Homo sapiens, UniProt P53779); experiment: HotSpot Kinase Assay (Reaction Biology Corp.), anti-JNK3 activity
T3 construct: purchased Reaction Biology Corp
Procedure: as §1, §2

T1 sequence (Q16539 whole entry): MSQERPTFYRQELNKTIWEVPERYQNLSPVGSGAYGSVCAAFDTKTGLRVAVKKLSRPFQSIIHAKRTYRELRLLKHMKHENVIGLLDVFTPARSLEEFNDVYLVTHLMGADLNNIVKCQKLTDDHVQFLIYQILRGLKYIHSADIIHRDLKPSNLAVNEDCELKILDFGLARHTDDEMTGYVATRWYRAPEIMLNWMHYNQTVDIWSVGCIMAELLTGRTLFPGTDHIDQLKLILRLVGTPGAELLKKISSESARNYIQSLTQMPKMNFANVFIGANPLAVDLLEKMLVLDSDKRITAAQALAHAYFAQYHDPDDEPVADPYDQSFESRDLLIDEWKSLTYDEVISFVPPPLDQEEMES
T2 sequence (P45983 whole entry): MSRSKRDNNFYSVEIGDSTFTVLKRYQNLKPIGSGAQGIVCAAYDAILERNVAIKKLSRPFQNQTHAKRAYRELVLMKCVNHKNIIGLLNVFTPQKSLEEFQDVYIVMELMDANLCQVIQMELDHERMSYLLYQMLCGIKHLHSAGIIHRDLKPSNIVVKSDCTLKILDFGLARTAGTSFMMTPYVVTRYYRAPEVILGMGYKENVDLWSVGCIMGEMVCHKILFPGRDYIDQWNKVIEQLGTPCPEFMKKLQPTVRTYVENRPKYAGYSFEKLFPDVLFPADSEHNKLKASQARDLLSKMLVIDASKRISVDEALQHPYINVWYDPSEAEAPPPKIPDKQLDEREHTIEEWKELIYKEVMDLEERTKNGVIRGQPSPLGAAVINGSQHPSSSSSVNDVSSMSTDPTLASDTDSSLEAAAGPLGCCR
T3 sequence (P53779 whole entry): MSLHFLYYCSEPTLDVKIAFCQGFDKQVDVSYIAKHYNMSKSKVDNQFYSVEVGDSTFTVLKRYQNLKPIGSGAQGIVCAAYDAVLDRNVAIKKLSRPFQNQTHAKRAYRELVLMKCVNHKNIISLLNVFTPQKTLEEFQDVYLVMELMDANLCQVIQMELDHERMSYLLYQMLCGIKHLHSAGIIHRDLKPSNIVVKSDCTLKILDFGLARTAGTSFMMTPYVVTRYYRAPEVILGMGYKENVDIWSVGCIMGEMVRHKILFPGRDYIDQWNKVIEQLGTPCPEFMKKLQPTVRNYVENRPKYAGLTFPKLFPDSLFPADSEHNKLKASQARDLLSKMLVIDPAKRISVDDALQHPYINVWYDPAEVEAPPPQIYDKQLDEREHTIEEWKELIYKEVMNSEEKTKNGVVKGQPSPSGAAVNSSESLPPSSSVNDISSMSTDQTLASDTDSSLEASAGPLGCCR

Row | Structure (SMILES) | IC50 (p38a) [µM] | IC50 (JNK1) [µM] | IC50 (JNK3) [µM]
1 | O=C(NC1CNC1)c1cc(-n2ncc3nc(Nc4ccccc4Cl)ncc32)cs1 [Compound 27, N-(azetidin-3-yl)-4-(5-((2-chlorophenyl)amino)-1H-pyrazolo[4,3-d]pyrimidin-1-yl)thiophene-2-carboxamide] | > 1 | > 1 | > 1
2 | O=C(NC1COC1)c1cc(-n2ncc3cc(Oc4ccccc4Cl)ccc32)cs1 [Compound 11, 4-(5-(2-chlorophenoxy)-1H-indazol-1-yl)-N-(oxetan-3-yl)thiophene-2-carboxamide] | > 1 | > 1 | < 0.2
3 | COCC(COC)NC(=O)c1cc(-n2ncc3cc(Oc4ccccc4Cl)ncc32)cs1 [Compound 12, 4-(5-(2-chlorophenoxy)-1H-pyrazolo[3,4-c]pyridin-1-yl)-N-(1,3-dimethoxypropan-2-yl)thiophene-2-carboxamide] | > 1 | > 1 | 0.2 to 1
4 | O=C(NC1COC1)c1cc(-n2ncc3cc(Oc4ccccc4Cl)cnc32)cs1 [Compound 70, 4-(5-(2-chlorophenoxy)-1H-pyrazolo[3,4-b]pyridin-1-yl)-N-(oxetan-3-yl)thiophene-2-carboxamide] | > 1 | > 1 | < 0.2
5 | COCC(COC)NC(=O)c1cc(-n2ncc3nc(Oc4ccccc4Cl)ccc32)cs1 [Compound 48, 4-(5-(2-chlorophenoxy)-1H-pyrazolo[4,3-b]pyridin-1-yl)-N-(1,3-dimethoxypropan-2-yl)thiophene-2-carboxamide] | > 1 | > 1 | > 1
6 | Cc1nc2c(cnn2-c2csc(C(=O)NC3(C)COC3)c2)cc1Nc1ccccc1Cl [Compound 79, 4-(5-((2-chlorophenyl)amino)-6-methyl-1H-pyrazolo[3,4-b]pyridin-1-yl)-N-(3-methyloxetan-3-yl)thiophene-2-carboxamide] | > 1 | > 1 | 0.2 to 1
7 | CC(C)NC(=O)c1cc(-n2ncc3cc(Oc4ccccc4Cl)ncc32)cs1 [Compound 7, 4-(5-(2-chlorophenoxy)-1H-pyrazolo[3,4-c]pyridine-1-yl)-N-isopropylthiophene-2-carboxamide] | > 1 | > 1 | < 0.2
8 | O=C(NC1COC1)c1cc(-n2ncc3cc(Nc4ccccc4Cl)c(F)cc32)cs1 [Compound 34, 4-(5-((2-chlorophenyl)amino)-6-fluoro-1H-indazol-1-yl)-N-(oxetan-3-yl)thiophene-2-carboxamide] | 0.2 to 1 | > 1 | < 0.2
9 | CC(C)NC(=O)c1cc(-n2ncc3nc(Oc4ccccc4Cl)ncc32)cs1 [Compound 47, 4-(5-(2-chlorophenoxy)-1H-pyrazolo[4,3-d]pyrimidin-1-yl)-N-isopropylthiophene-2-carboxamide] | > 1 | > 1 | > 1
10 | CNC(=O)c1cc(-n2ncc3nc(Oc4ccccc4Cl)ccc32)cs1 [Compound 49, 4-(5-(2-chlorophenoxy)-1H-pyrazolo[4,3-b]pyridin-1-yl)-N-methylthiophene-2-carboxamide] | 0.2 to 1 | > 1 | 0.2 to 1
11 | O=C(NC1CN(C2CC2)C1)c1cc(-n2ncc3cc(Oc4ccccc4Cl)ccc32)cs1 [Compound 10, 4-(5-(2-chlorophenoxy)-1H-indazol-1-yl)-N-(1-cyclopropylazetidin-3-yl)thiophene-2-carboxamide] | 0.2 to 1 | > 1 | < 0.2
12 | COc1cc2c(cnn2-c2csc(C(=O)NC3COC3)c2)cc1Nc1ccccc1Cl [Compound 78, 4-(5-((2-chlorophenyl)amino)-6-methoxy-1H-indazol-1-yl)-N-(oxetan-3-yl)thiophene-2-carboxamide] | > 1 | > 1 | < 0.2
13 | CC(C)NC(=O)c1cc(-n2ncc3cc(Nc4ccccc4Cl)ncc32)cs1 [Compound 16, 4-(5-((2-chlorophenyl)amino)-1H-pyrazolo[3,4-c]pyridin-1-yl)-N-isopropylthiophene-2-carboxamide] | 0.2 to 1 | 0.2 to 1 | < 0.2
14 | CNC(=O)c1cc(-n2ncc3cc(Nc4c(F)cccc4Cl)c(F)cc32)cs1 [Compound 111, 4-(5-((2-chloro-6-fluorophenyl)amino)-6-fluoro-1H-indazol-1-yl)-N-methylthiophene-2-carboxamide] | 0.2 to 1 | > 1 | < 0.2

Further lines, results first:

Row | IC50 (p38a) [µM] | IC50 (JNK1) [µM] | IC50 (JNK3) [µM] | Structure (SMILES)
15 | 0.2 to 1 | 0.2 to 1 | < 0.2 | CC(C)NC(=O)c1cc(-n2ncc3nc(Nc4ccccc4Cl)ccc32)cs1 [Compound 54, 4-(5-((2-chlorophenyl)amino)-1H-pyrazolo[4,3-b]pyridin-1-yl)-N-isopropylthiophene-2-carboxamide]
16 | 0.2 to 1 | 0.2 to 1 | < 0.2 | CNC(=O)c1cc(-n2ncc3cc(Oc4ccccc4Cl)cnc32)cs1 [Compound 64, 4-(5-(2-chlorophenoxy)-1H-pyrazolo[3,4-b]pyridin-1-yl)-N-methylthiophene-2-carboxamide]
17 | < 0.2 | < 0.2 | < 0.2 | O=C(NCC(F)F)c1cc(-n2ncc3cc(Nc4ccccc4Cl)c(F)cc32)cs1 [Compound 39, 4-(5-((2-chlorophenyl)amino)-6-fluoro-1H-indazol-1-yl)-N-(2,2-difluoroethyl)thiophene-2-carboxamide]
18 | < 0.2 | < 0.2 | < 0.2 | O=C(NC1CC1)c1cc(-n2ncc3cc(Nc4ccccc4Cl)c(F)cc32)cs1 [Compound 31, 4-(5-((2-chlorophenyl)amino)-6-fluoro-1H-indazol-1-yl)-N-cyclopropylthiophene-2-carboxamide]
19 | < 0.2 | 0.2 to 1 | < 0.2 | COCCNC(=O)c1cc(-n2ncc3cc(Nc4ccccc4Cl)ncc32)cs1 [Compound 17, 4-(5-((2-chlorophenyl)amino)-1H-pyrazolo[3,4-c]pyridin-1-yl)-N-(2-methoxyethyl)thiophene-2-carboxamide]
20 | 0.2 to 1 | 0.2 to 1 | < 0.2 | O=C(NCCCF)c1cc(-n2ncc3cc(Oc4ccccc4Cl)cnc32)cs1 [Compound 72, 4-(5-(2-chlorophenoxy)-1H-pyrazolo[3,4-b]pyridin-1-yl)-N-(3-fluoropropyl)thiophene-2-carboxamide]
21 | < 0.2 | < 0.2 | < 0.2 | O=C(N[C@H]1CCOC1)c1cc(-n2ncc3cc(Nc4ccccc4Cl)c(F)cc32)cs1 [Compound 32, (S)-4-(5-((2-chlorophenyl)amino)-6-fluoro-1H-indazol-1-yl)-N-(tetrahydrofuran-3-yl)thiophene-2-carboxamide]
22 | 0.2 to 1 | > 1 | < 0.2 | O=C(NC1COC1)c1cc(-n2ncc3nc(Nc4ccccc4Cl)ccc32)cs1 [Compound 52, 4-(5-((2-chlorophenyl)amino)-1H-pyrazolo[4,3-b]pyridin-1-yl)-N-(oxetan-3-yl)thiophene-2-carboxamide]
23 | 0.2 to 1 | 0.2 to 1 | < 0.2 | Cc1nc2c(cnn2-c2csc(C(=O)NC3COC3)c2)cc1Nc1cccc(F)c1Cl [Compound 100, 4-(5-((2-chloro-3-fluorophenyl)amino)-6-methyl-1H-pyrazolo[3,4-b]pyridin-1-yl)-N-(oxetan-3-yl)thiophene-2-carboxamide]
24 | 0.2 to 1 | > 1 | < 0.2 | CNC(=O)c1cc(-n2ncc3cc(Nc4c(Cl)cccc4OC)cnc32)cs1 [Compound 109, 4-(5-((2-chloro-6-methoxyphenyl)amino)-1H-pyrazolo[3,4-b]pyridin-1-yl)-N-methylthiophene-2-carboxamide]
25 | < 0.2 | 0.2 to 1 | < 0.2 | CC(=O)N1CC[C@H](NC(=O)c2cc(-n3ncc4cc(Nc5ccccc5Cl)c(F)cc43)cs2)C1 [Compound 40, (S)—N-(1-acetylpyrrolidin-3-yl)-4-(5-((2-chlorophenyl)amino)-6-fluoro-1H-indazol-1-yl)thiophene-2-carboxamide]
26 | 0.2 to 1 | > 1 | < 0.2 | [2H]C([2H])([2H])N1CC[C@@H](NC(=O)c2cc(-n3ncc4cc(Oc5ccccc5Cl)ccc43)cs2)C1 [Compound 13, (R)-4-(5-(2-chlorophenoxy)-1H-indazol-1-yl)-N-(1-(methyl-d3)pyrrolidin-3-yl)thiophene-2-carboxamide]
27 | 0.2 to 1 | 0.2 to 1 | < 0.2 | CNC(=O)c1cc(-n2ncc3cc(N(C)c4ccccc4OC)c(F)cc32)cs1 [Compound 75, 4-(6-fluoro-5-((2-methoxyphenyl)(methyl)amino)-1H-indazol-1-yl)-N-methylthiophene-2-carboxamide]
28 | < 0.2 | < 0.2 | < 0.2 | CC(C)NC(=O)c1cc(-n2ncc3cc(Nc4ccccc4Cl)c(F)cc32)cs1 [Compound 44, 4-(5-((2-chlorophenyl)amino)-6-fluoro-1H-indazol-1-yl)-N-isopropylthiophene-2-carboxamide]
29 | 0.2 to 1 | > 1 | < 0.2 | COCCNC(=O)c1cc(-n2ncc3nc(Nc4ccccc4Cl)ccc32)cs1 [Compound 55, 4-(5-((2-chlorophenyl)amino)-1H-pyrazolo[4,3-b]pyridin-1-yl)-N-(2-methoxyethyl)thiophene-2-carboxamide]
30 | < 0.2 | 0.2 to 1 | < 0.2 | CNC(=O)c1cc(-n2ncc3cc(Nc4ccccc4Cl)cnc32)c(C)s1 [Compound 65, 4-(5-((2-chlorophenyl)amino)-1H-pyrazolo[3,4-b]pyridin-1-yl)-N,5-dimethylthiophene-2-carboxamide]
